Assay results as given in PMC4178217, “Quinoline 3-sulfonamides inhibit lactate dehydrogenase A and reverse aerobic glycolysis in cancer cells” (Cancer & Metabolism, 2013).
Entries after “also recorded” stand apart in the source; their conditions may differ.

Columns and labels:
Snu398 cells = test: Fructose-1,6-bisphosphate (FBP) analysis; type: cell-based, human; settings: Snu398, 10 μM, 24 h R10 or 6 h low glucose
Experimental: Treatment was carried out for 24 h in R10 or for 6 h in low glucose medium. At the end of this treatment, cells were washed, lifted by trypsinization, counted, and cell pellets were submitted for analysis of FBP to Apredica, Inc.

Adenosine Receptor a2A = Adenosine Receptor a2A (Homo sapiens, UniProt P29274); test: Adenosine Receptor a2A ANT; settings: antagonist; read-out: pIC50 Adenosine Receptor a2A ANT (converted)
Chain of Adenosine Receptor a2A (P29274 whole entry, species assumed): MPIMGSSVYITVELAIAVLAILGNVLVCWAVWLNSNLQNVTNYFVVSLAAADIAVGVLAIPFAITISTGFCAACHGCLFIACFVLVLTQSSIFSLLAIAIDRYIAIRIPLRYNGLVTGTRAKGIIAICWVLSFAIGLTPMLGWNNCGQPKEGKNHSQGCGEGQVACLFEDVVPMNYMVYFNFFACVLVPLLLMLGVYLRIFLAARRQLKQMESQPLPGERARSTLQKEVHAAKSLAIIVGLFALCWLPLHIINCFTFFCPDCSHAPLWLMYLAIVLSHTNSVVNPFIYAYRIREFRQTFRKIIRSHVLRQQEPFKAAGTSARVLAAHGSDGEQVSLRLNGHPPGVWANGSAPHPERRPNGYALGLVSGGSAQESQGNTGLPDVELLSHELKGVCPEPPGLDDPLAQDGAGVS
Description: (§1) ANT = antagonist (pIC50), AG = agonist (pEC50). pIC50 and pEC50 are the negative logarithms10 of IC50 and EC50, respectively. Click here for file

Adrenergic Receptor b2 = Adrenergic Receptor b2 (Homo sapiens, UniProt P07550); test: Adrenergic Receptor b2 ANT; settings: antagonist; read-out: pIC50 Adrenergic Receptor b2 ANT (converted)
Chain of Adrenergic Receptor b2 (P07550 whole entry): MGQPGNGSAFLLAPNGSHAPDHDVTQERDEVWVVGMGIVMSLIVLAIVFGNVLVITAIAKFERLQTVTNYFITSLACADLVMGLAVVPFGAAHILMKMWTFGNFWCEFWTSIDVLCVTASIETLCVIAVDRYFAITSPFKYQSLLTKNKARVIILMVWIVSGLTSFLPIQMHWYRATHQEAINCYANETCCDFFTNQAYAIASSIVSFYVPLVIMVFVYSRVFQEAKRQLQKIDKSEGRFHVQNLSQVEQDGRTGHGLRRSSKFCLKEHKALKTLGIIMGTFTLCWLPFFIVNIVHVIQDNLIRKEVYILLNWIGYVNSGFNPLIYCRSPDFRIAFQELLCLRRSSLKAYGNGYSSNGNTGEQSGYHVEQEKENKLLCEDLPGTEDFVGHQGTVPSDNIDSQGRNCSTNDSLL
Description: as §1

[1] = molecular target: Cannabinoid receptor type 2 (Homo sapiens, UniProt P34972); test: Cannabinoid receptor type 2 AG; settings: agonist; read-out: pEC50 Cannabinoid receptor type 2 AG (converted)
Chain of Cannabinoid receptor type 2 (P34972 whole entry): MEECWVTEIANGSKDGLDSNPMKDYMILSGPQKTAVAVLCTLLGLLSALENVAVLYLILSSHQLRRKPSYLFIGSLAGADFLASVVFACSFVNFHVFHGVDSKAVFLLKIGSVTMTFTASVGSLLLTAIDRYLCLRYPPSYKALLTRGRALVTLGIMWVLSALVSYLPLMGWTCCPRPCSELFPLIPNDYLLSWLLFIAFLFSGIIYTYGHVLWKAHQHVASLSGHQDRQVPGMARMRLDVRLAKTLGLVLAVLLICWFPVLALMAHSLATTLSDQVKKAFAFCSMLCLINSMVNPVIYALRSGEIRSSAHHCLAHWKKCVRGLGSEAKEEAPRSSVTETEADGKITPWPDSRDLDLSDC
Description: as §1

Dopamin Receptor D1 = Dopamin Receptor D1 (Homo sapiens, UniProt P21728); test: Dopamin Receptor D1 ANT; settings: antagonist; read-out: pIC50 Dopamin Receptor D1 ANT (converted)
Chain of Dopamin Receptor D1 (P21728 whole entry): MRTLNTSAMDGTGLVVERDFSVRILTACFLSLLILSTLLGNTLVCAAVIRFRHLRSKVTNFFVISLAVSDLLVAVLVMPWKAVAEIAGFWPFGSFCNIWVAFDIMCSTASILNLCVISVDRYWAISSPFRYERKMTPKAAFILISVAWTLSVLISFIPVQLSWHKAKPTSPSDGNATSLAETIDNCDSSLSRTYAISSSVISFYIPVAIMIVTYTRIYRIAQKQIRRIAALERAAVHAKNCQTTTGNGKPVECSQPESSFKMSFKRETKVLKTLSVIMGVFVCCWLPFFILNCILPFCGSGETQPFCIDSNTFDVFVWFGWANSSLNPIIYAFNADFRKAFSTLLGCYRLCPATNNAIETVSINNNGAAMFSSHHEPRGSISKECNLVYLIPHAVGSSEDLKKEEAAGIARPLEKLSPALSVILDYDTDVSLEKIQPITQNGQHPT
Description: as §1

[2] = molecular target: Lymphocyte-specific Tyrosine Kinase (Homo sapiens, UniProt P06239); test: Lymphocyte-specific Tyrosine Kinase ANT; type: biochemical; settings: antagonist; read-out: pIC50 Lymphocyte-specific Tyrosine Kinase ANT (converted)
Chain of Lymphocyte-specific Tyrosine Kinase (P06239 whole entry): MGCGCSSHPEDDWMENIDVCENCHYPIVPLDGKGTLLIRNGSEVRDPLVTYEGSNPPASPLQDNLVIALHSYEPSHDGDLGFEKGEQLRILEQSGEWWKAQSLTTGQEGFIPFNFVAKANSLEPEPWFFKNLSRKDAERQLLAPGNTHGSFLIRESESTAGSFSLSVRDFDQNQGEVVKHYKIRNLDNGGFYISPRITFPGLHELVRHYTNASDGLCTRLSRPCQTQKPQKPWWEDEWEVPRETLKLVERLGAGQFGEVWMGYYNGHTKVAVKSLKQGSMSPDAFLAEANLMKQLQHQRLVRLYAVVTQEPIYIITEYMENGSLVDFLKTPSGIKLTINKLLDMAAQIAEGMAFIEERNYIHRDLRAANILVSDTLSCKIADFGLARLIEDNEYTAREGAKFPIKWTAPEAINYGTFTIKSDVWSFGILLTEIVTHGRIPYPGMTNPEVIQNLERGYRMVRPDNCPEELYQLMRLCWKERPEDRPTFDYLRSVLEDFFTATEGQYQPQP
Description: as §1

Monoamine Oxidase B = Monoamine Oxidase B (Homo sapiens, UniProt P27338); test: Monoamine Oxidase B ANT; type: biochemical; settings: antagonist; read-out: pIC50 Monoamine Oxidase B ANT (converted)
Chain of Monoamine Oxidase B (P27338 whole entry): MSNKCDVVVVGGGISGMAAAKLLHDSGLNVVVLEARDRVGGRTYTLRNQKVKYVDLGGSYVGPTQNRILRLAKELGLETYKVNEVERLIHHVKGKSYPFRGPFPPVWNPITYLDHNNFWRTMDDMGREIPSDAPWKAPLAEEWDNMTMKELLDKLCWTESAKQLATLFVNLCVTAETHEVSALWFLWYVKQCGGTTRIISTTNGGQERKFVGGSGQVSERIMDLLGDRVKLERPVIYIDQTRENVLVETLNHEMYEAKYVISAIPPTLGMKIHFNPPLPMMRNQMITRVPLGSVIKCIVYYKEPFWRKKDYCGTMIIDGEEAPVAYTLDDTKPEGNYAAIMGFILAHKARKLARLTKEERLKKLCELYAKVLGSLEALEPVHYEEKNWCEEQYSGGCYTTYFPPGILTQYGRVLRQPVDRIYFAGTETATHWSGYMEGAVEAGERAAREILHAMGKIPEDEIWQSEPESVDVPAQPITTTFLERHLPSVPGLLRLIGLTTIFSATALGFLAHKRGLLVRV
Description: as §1

Muscarinic Receptor M1 [3] = molecular target: T1, Muscarinic Receptor M1 (Homo sapiens, UniProt P11229); test: Muscarinic Receptor M1 AG; settings: agonist; read-out: pEC50 Muscarinic Receptor M1 AG (converted)
T1 sequence (P11229 1-460): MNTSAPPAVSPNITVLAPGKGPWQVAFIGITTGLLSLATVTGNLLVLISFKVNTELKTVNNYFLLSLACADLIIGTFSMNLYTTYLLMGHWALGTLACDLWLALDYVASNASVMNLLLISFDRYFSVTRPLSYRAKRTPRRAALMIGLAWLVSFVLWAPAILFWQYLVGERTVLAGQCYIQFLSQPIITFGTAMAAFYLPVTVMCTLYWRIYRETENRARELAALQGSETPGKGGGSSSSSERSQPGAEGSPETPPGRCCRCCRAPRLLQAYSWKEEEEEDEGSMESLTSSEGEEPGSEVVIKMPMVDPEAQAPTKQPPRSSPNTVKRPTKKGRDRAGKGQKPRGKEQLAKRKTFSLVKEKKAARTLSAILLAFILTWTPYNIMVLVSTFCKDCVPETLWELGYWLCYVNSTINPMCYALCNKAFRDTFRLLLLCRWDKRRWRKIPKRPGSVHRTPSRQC
Description: as §1

Muscarinic Receptor M1 [4] = molecular target: T1, Muscarinic Receptor M1; test: Muscarinic Receptor M1 ANT; settings: antagonist; read-out: pIC50 Muscarinic Receptor M1 ANT (converted)
Description: as §1

Muscarinic Receptor M2 [5] = molecular target: T2, Muscarinic Receptor M2 (Homo sapiens, UniProt P08172); test: Muscarinic Receptor M2 AG; settings: agonist; read-out: pEC50 Muscarinic Receptor M2 AG (converted)
T2 sequence (P08172 1-466): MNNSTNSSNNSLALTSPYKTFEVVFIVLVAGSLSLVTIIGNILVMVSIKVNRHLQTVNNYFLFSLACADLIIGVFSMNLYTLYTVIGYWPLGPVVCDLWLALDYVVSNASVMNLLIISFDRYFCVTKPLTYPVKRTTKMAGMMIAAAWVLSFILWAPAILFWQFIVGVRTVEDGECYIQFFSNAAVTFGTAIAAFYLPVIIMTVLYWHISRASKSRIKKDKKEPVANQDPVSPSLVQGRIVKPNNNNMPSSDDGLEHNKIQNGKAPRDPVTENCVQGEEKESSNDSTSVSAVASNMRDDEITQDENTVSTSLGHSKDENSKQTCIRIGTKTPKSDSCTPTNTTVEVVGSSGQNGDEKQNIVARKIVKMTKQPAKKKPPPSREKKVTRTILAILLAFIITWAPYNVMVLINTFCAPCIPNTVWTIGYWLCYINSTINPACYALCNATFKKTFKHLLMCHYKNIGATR
Description: as §1

Muscarinic Receptor M2 [6] = molecular target: T2, Muscarinic Receptor M2; test: Muscarinic Receptor M2 ANT; settings: antagonist; read-out: pIC50 Muscarinic Receptor M2 ANT (converted)
Description: as §1

Potassium Channel Kv1.5 = Potassium Channel Kv1.5 (Homo sapiens, UniProt P22460); test: Potassium Channel Kv1.5 ANT; settings: antagonist; read-out: pIC50 Potassium Channel Kv1.5 ANT (converted)
Chain of Potassium Channel Kv1.5 (P22460 whole entry): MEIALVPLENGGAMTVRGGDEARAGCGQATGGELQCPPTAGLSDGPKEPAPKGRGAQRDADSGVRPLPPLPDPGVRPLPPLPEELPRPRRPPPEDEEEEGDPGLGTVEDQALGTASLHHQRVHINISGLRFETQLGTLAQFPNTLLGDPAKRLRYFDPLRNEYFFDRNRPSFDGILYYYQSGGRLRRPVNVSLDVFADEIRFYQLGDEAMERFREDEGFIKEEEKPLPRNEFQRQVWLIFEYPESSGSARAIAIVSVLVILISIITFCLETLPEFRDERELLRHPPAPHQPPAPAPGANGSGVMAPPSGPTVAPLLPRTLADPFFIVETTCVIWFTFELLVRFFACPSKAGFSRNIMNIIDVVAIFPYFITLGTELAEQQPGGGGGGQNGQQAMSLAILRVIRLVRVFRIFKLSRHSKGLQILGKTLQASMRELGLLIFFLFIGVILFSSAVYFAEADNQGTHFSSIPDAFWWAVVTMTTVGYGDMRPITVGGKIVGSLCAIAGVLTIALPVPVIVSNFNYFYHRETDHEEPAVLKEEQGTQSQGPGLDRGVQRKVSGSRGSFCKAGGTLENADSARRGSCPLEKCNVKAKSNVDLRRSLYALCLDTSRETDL
Description: as §1

Serotonin Receptor 5HT1B = Serotonin Receptor 5HT1B (Homo sapiens, UniProt P28222); test: Serotonin Receptor 5HT1B ANT; settings: antagonist; read-out: pIC50 Serotonin Receptor 5HT1B ANT (converted)
Chain of Serotonin Receptor 5HT1B (P28222 whole entry): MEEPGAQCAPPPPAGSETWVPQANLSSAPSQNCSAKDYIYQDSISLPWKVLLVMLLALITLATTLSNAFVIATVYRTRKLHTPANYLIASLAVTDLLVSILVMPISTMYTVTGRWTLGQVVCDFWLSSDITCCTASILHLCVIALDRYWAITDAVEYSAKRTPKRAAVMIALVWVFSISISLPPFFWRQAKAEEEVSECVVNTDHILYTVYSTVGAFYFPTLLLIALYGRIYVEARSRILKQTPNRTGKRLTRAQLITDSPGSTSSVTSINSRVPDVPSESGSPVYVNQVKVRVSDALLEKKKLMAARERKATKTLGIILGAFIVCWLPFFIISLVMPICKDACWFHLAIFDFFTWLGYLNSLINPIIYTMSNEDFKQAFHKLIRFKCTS
Description: as §1

Serotonin Receptor 5HT2A = Serotonin Receptor 5HT2A (Homo sapiens, UniProt P28223); test: Serotonin Receptor 5HT2A AG; settings: agonist; read-out: pEC50 Serotonin Receptor 5HT2A AG (converted)
Chain of Serotonin Receptor 5HT2A (P28223 whole entry): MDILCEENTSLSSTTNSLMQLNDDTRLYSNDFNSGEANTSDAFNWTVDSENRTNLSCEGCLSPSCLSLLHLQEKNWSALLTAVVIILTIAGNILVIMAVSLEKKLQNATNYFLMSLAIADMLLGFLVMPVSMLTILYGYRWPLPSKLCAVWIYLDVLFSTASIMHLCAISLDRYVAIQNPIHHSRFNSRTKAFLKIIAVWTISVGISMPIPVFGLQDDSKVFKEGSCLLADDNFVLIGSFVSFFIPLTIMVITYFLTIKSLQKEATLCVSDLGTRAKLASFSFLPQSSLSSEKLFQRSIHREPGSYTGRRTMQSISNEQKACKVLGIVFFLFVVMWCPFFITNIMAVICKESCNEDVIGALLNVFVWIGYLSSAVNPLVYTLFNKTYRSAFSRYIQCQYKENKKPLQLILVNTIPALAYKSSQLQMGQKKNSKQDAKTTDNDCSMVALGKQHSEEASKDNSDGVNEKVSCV
Description: as §1

Serotonin Receptor 5HT3 = molecular target: T3, Serotonin Receptor 5HT3 (Homo sapiens, UniProt P46098); test: Serotonin Receptor 5HT3 AG; settings: agonist; read-out: pEC50 Serotonin Receptor 5HT3 AG (converted)
T3 sequence (P46098 24-478): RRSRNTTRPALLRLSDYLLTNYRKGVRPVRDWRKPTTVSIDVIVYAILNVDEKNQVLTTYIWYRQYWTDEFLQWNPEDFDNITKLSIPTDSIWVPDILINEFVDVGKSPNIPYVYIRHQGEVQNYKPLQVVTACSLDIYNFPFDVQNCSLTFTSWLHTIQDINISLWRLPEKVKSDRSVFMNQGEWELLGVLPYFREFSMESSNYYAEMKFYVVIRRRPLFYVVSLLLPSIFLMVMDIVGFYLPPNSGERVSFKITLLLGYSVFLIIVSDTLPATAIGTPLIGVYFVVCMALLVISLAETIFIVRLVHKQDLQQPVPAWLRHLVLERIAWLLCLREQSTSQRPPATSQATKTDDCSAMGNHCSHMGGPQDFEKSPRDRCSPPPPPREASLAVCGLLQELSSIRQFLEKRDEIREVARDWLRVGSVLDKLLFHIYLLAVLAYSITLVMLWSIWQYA
Description: as §1

Vasopressin Receptor V1a = Vasopressin Receptor V1a (Homo sapiens, UniProt P37288); test: Vasopressin Receptor V1a ANT; settings: antagonist; read-out: pIC50 Vasopressin Receptor V1a ANT (converted)
Chain of Vasopressin Receptor V1a (P37288 whole entry): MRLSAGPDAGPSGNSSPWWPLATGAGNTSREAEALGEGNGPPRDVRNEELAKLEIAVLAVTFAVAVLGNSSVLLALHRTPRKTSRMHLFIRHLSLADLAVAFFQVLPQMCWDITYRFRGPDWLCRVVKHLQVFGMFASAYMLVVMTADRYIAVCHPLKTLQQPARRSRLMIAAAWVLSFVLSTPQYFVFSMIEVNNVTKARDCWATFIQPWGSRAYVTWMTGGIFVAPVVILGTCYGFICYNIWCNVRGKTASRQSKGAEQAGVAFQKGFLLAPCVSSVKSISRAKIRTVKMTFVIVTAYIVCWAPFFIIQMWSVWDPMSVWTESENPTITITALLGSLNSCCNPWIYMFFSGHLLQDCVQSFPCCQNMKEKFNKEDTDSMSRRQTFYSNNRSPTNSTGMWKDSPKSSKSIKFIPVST
Description: as §1

| Compound | intracellular fructose-1,6-bisphosphate (FBP) level (Snu398 cells) | IC50 (Adenosine Receptor a2A) [µM] | IC50 (Adrenergic Receptor b2) [µM] | EC50 [1] [µM] | IC50 (Dopamin Receptor D1) [µM] | IC50 [2] [µM] | IC50 (Monoamine Oxidase B) [µM] | EC50 (Muscarinic Receptor M1 [3]) [µM] | IC50 (Muscarinic Receptor M1 [4]) [µM] | EC50 (Muscarinic Receptor M2 [5]) [µM] | IC50 (Muscarinic Receptor M2 [6]) [µM] | IC50 (Potassium Channel Kv1.5) [µM] | IC50 (Serotonin Receptor 5HT1B) [µM] | EC50 (Serotonin Receptor 5HT2A) [µM] | EC50 (Serotonin Receptor 5HT3) [µM] | IC50 (Vasopressin Receptor V1a) [µM] |
| --- | --- | --- | --- | --- | --- | --- | --- | --- | --- | --- | --- | --- | --- | --- | --- | --- |
| COc1ncc(-c2ccc3c(Nc4cc(Oc5cc(F)cc(F)c5)cc(C(=O)O)c4)c(S(=O)(=O)NC4CC4)cnc3c2)c(OC)n1 [Compound 1] | increase intracellular levels of fructose-1,6-bisphosphate (FBP); also recorded: Increase in fructose-1,6-bisphosphate (FBP) | 31.6 | 31.6 | 31.6 | 31.6 | 31.6 | 6.31 | 15.8 | 15.8 | 15.8 | 15.8 | 50.1 | 31.6 | 39.8 | 50.1 | 50.1 |
| COc1ncc(-c2ccc3c(Nc4cc(C(=O)O)cc(C5CCCC5)c4)c(S(=O)(=O)NC4CC4)cnc3c2)c(OC)n1 [Compound 2] | increase intracellular levels of fructose-1,6-bisphosphate (FBP) | 31.6 | 31.6 | 31.6 | 31.6 | 31.6 | 15.8 | 15.8 | 15.8 | 15.8 | 15.8 | 50.1 | 31.6 | 39.8 | 39.8 | 20 |
